# Assay results as given in patent publication US20230355599A1, “BIOMARKERS FOR CBL, AND COMPOSITIONS AND METHODS FOR THEIR USE” (NURIX THERAPEUTICS, INC., priority 2022, published 2023).
# Legend:
# [1] = tested on: phosphorylated PLCγ2; experiment: Phosphorylated PLCγ2 in cynomolgus macaque CD8+ T cells from whole blood in vitro (flow cytometry); format: cell-based; settings: Macaca fascicularis, T-cell, whole blood from six cynomolgus macaques, 2 hrs 37° C., 2 μg/mL anti-CD3 & anti-CD28 + crosslinker 60 minutes, read-out: Average mean EC50±standard deviation, phosphorylated PLCγ2
# Description: (§1) To assess these candidate clinical proximal biomarkers of Cbl-b inhibition on T cells, pharmacodynamic analysis was performed. Whole blood was obtained from cynomolgus macaque donors, then incubated with increasing concentrations of Compound 23. The response to Cbl-b inhibition on phosphorylated HS1, ZAP70 and PLCγ2 was measured in CD8^+ T cells using flow cytometry. This technique is highly quantitative and can measure multiple phosphorylation markers in different cell populations within the same sample.
# DMSO (Dimethyl sulfoxide) was used to reconstitute Compound 23. Final concentration of DMSO was 0.05% in media for in vitro assays. […]
# (§2) Stained cells were run on an Attune NxT Acoustic Focusing Flow Cytometer (Thermo Fisher, cat. No. A29004), and data was analyzed using FlowJo (v10.6.1) and GraphPad Prism (v8.00) software. Single lymphocytes were gated for CD8^+ cells (CD45^+/CD8^+) cells, and population frequencies were calculated for each population. The data is quantified by the percent positive. […] As protein becomes phosphorylated the fluorescence increases resulting in a larger fraction of the cells entering that gate. Each population was evaluated for % positive pY759-PLCγ2, pY397-HS1 levels, pY319/Syk (Y352)-ZAP70 levels.
# [2] = tested on: phosphorylated HS1; experiment: Phosphorylated HS1 in human CD8+ T cells from whole blood in vitro (flow cytometry); format: cell-based
# Description: as §1, with “human donors and” for “cynomolgus macaque donors, then”, “HS1, PLCγ2, and” for “HS1,”, “ZAP70” for “ZAP70 and PLCγ2”
# For pharmacodynamic analysis, whole blood was obtained from six human donors (BioIVT) and used for flow cytometry assays to evaluate phosphorylated biomarkers HS1, PLCγ2, and ZAP70 in CD8^+ T cells.
# Whole blood was collected in a collection tube coated with sodium heparin. […]
# as §2, with “levels. […]” for “levels.”
smiles,measurement,setting,value
C[C@H]1CCCN(Cc2cc3c(c(C(F)(F)F)c2)CN(c2cccc([C@]4(c5nncn5C)C[C@@H](C)C4)c2)C3=O)C1 [Compound 23],EC50,[1],121 ± 37.4 nM
same,EC50,"[2]; T-cell, whole blood from six human donors, 2 hrs 37° C., anti-CD3/anti-CD28 + crosslinker 60 minutes, CD8+ T cells, read-out: Average mean EC50±standard deviation, phosphorylated HS1",89 ± 7.91 nM
same,phosphorylated HS1 in human whole blood (FIG. 7),"[2]; human donors n=6, two hours at 37° C., anti-CD3 and anti-CD28 co-stimulation, crosslinked",concentration-dependent increase
